The results in this text go back to patent EP0620008B1, “Use of vip, analogues and fragments thereof for the treatment of neurodegenerative diseases” (YEDA RESEARCH AND DEVELOPMENT COMPANY, LTD., priority 1993, dated 1999).

One data set deals with untreated neurons. The experiment in a line: survival of untreated cerebral cortical neurons (protection from naturally occurring death). The settings on record: for concentrations able to protect cells from naturally occurring death: cerebral cortical cultures of newborn rats, number of cells at 10^-12 M serves as control, Figs. 2-4.
Data set [1] deals with neurons treated with a VIP antagonist. The experiment in a line: survival of cerebral cortical neurons treated with a VIP antagonist.
Method: (§1) • (a) Cerebral cortical cultures were prepared by a slight modification of the techniques described by Forsythe and Westbrook, (J. Physiol. Lond. 396:515 (1988)), in which cerebral cortex was used instead of hippocampus and newborn rats were utilized instead of E16 mice. […] Cerebral cortical cells were counted as above, however, only 40 fields per plate were counted comprising an area of 20 mm^2.
(§2) • (a) Cells were prepared as described in Example 5. […] One treatment was given at the beginning of a five day test period. Cell counts were performed on 100 fields, with a total area of 50 mm^2. Neurons were counted without knowledge of treatment.
The subject of data set [2] is neurons treated with fragment 25-35 of β-Amyloid peptide. The experiment in a line: survival of cerebral cortex neurons treated with fragment 25-35 of β-amyloid peptide. The settings on record: 25 µM fragment alone; 5 days. Format: cell-based, rat. As to the method: β-amyloid peptide is known to be involved in Alzheimer's disease and is a toxic substance to neurons grown in culture (Pike et al., J. of Neurosci., 13(4), 1676-1687 (1993)). Neurons from rat cerebral cortex, prepared as described above were treated with 25 µM of β-amyloid peptide fragment comprising amino acids in positions 25 to 35 mentioned in the above publication. The β-amyloid peptide fragment was dissolved in water and preincubated at 37°C for 48 h in 10% CO2. St-Nle^17-VIP (10 µl/1 ml medium) was added to the culture plates at varying concentrations together with the β-amyloid peptide fragment. The St-Nle^17-VIP was initially dissolved in DMSO to give a concentration of 10^-3 M and all further dilutions were performed in saline. Cells were then incubated for 5 days, stained with antibodies against neuron specific enolase and living neurons were counted as described above.

Where no end group is shown, it is not given here.

Method for untreated neurons: as §1, §2

On to “St-K-Q-M-A-V-K-K-Y-L-A-A-V-L (stearyl-KQMAVKKYLAAVL) [peptide 2]”, for which the “concentrations able to protect cells from naturally occurring death” value with untreated neurons is listed as “above 10^-9 M”.

For “St-H-S-D-G-I-F-T-D-S-Y-S-R-Y-R (stearyl-HSDGIFTDSYSRYR) [peptide 1]”, the “concentrations able to protect cells from naturally occurring death” value in the data set on untreated neurons is given as “above 10^-8 M”.

As for “St-A-V-T-T-D-N-Y-T (stearyl-AVTTDNYT) [peptide 5]”, the “effect on neuronal survival” value in data set [1] (in the presence (Fig. 5A) and in the absence (Fig. 5B) of the VIP antagonist) is recorded as “VIP agonist, stimulating neuronal survival”. For the same substance, the “concentration of maximal activity (neuronal survival)” value in data set [1] (in the presence of 10^-8 M VIP antagonist, five day test period, Fig. 5A) is on record as 10^-10 M; in the data set on untreated neurons (in absence of the VIP antagonist, five day test period, Fig. 5B), 10^-8 M.

For the substance “GSNKGAIIGLM [fragment 25-35 of β-amyloid peptide]”, in data set [2], the “number of living neurons” value stood at 42 per 20 mm^2.
